Results published in patent publication CN106581687A, “以乳清蛋白为基质的桃柁酚抗菌纳米水凝胶及其制备方法” (Jilin University, priority 2016, dated 2017).
≈ marks a conversion by molar mass, not a printed value.

Test system: Staphylococcus aureus (金黄色葡萄球菌), S.aureus strains ATCC 29213
Test: 最小抑菌浓度MIC (minimum inhibitory concentration of totarol)
Format: cell-based
Conditions: value used for loading in the Example concerned

MIC (Staphylococcus aureus, ATCC29213, totarol against Staphylococcus aureus): 2 µg/mL (≈ 6.98 µM)
minimum inhibitory concentration (MIC value) (totarol against Staphylococcus aureus): 4 µg/mL (≈ 14 µM)
Compound: CC(C)c1c(O)ccc2c1CC[C@H]1C(C)(C)CCC[C@]21C [桃柁酚, 桃柁酚(Totarol)]
